Results on 32 molecules are retold here after patent publication US20090215857A1 (Pfizer Products Inc., priority 2005, published 2009).

Structures can show the parent of a compound that is named as a salt.

Test [1] deals with T1, human norepinephrine transporter (Homo sapiens, UniProt P23975).
T1 construct: expressed in transfected cells; host or cells: HEK-293
Nature of the test: hNET receptor binding ([125I]-RTI-55 radioligand). Conditions: membranes of HEK-293 cells transfected with human norepinephrine transporter cDNA; 50 pM [125I]-RTI-55; IC50 converted by Cheng-Prusoff; read-out: NET Ki. In a few lines: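 Membranes from HEK-293 cells expressing human NET were incubated 90 min at room temperature with 50 pM [125I]-RTI-55 and test compound (10^−5M to 10^−12M) in Krebs-HEPES, pH 7.4.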

Test [2] addresses T2, human serotonin transporter (Homo sapiens, UniProt P31645).
T2 construct: expressed in transfected cells; host or cells: HEK-293
Description: hSERT receptor binding ([125I]-RTI-55 radioligand). To be noted: membranes of HEK-293 cells transfected with human serotonin transporter cDNA; 50 pM [125I]-RTI-55; IC50 converted by Cheng-Prusoff; read-out: SERT Ki. The gist of the method:
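HEK-293 membranes expressing transfected human transporter were incubated with 50 pM [125I]-RTI-55 and test compound (10^−5 to 10^−12 M) in Krebs-HEPES pH 7.4 for 90 min at RT.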

T1 sequence (P23975 whole entry): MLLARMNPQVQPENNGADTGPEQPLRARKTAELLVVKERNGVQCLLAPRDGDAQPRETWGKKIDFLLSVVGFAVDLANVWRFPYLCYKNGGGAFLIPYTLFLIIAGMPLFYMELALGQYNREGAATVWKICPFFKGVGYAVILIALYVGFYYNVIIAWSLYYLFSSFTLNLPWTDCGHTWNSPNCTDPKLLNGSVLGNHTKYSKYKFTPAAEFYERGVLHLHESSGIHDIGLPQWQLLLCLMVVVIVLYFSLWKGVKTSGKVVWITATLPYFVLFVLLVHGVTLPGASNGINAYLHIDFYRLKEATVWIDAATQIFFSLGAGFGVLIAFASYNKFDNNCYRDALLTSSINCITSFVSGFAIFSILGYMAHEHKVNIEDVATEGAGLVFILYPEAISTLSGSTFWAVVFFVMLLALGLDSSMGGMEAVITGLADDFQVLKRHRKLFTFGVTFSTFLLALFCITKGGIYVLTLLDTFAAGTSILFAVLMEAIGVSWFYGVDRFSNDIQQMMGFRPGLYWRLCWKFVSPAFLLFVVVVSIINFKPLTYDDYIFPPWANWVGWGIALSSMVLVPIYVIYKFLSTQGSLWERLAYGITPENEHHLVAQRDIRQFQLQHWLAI
T2 sequence (P31645 whole entry): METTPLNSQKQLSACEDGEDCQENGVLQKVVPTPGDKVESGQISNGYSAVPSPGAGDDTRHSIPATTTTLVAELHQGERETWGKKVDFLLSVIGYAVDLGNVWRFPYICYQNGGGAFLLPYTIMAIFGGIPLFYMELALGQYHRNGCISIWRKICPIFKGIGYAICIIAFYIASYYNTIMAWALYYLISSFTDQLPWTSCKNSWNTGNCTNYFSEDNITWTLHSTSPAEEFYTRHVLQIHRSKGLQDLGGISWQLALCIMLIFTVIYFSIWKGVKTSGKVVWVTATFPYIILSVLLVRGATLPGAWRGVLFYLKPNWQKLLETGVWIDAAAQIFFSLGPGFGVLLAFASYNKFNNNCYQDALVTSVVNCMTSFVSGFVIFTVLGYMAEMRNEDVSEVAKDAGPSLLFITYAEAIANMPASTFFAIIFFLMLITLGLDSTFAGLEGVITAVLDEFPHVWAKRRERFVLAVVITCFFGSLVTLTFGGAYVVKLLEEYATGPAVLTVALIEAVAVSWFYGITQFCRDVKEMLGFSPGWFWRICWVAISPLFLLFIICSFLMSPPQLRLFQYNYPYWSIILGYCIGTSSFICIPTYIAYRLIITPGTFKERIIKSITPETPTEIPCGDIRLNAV

As usually defined, the Ki is a measure of affinity in units of concentration, obtained from inhibition or displacement. As to `Fc1ccc(-c2cccc(OC(F)(F)F)c2)c(CO[C@H]2CCNC2)c1` [Example D-95, (S)-3-(4-Fluoro-3′-trifluoromethoxy-biphenyl-2-ylmethoxy)-pyrrolidine], the Ki in test [1] worked out at 331 nM; in test [2] it was 122 nM.

As to `Fc1ccc(-c2ccccc2OCc2ccccc2)c(CO[C@H]2CCNC2)c1` [Example D-97, (S)-3-(2′-Benzyloxy-4-fluoro-biphenyl-2-ylmethoxy)-pyrrolidine], the Ki in test [1] amounted to 148 nM; in test [2] it was 286 nM.

Turning to `COc1ccc(-c2ccc(F)cc2CO[C@H]2CCNC2)cc1C` [Example D-98, (S)-3-(4-Fluoro-4′-methoxy-3′-methyl-biphenyl-2-ylmethoxy)-pyrrolidine], the Ki in test [1] came to 187 nM; in test [2] it was 292 nM.

Turning to `Oc1ccc(-c2ccc(F)cc2CO[C@H]2CCNC2)cc1` [Example D-99, (S)-4′-Fluoro-2′-(pyrrolidine-3-yloxymethyl)-biphenyl-4-ol], the results for the Ki in test [1] and in test [2] were 43.1 nM and 659 nM, respectively.

In the case of `COc1ccc(-c2ccc(F)cc2CO[C@H]2CCNC2)cc1F` [Example D-100, (S)-3-(4,3′-Difluoro-4′-methoxy-biphenyl-2-ylmethoxy)-pyrrolidine], the Ki in test [1] worked out at 404 nM; in test [2], 486 nM.

On to `Fc1ccc(-c2ccccc2-c2ccccc2)c(CO[C@H]2CCNC2)c1` [Example D-101, (S)-3-(4″-Fluoro-[1,1′,2′,1″]terphenyl-2″-ylmethoxy)-pyrrolidine], for which the Ki in test [1] was 962 nM; in test [2], 3780 nM.

`CS(=O)(=O)c1ccc(-c2ccc(F)cc2CO[C@H]2CCNC2)cc1` [Example D-102, (S)-3-(4-Fluoro-4′-methanesulfonyl-biphenyl-2-methoxy)-pyrrolidine]: the inhibition constant Ki in test [1] and in test [2] was not below 10000 nM throughout.

For `Oc1ccccc1-c1ccc(F)cc1CO[C@H]1CCNC1` [Example D-103, (S)-4′-Fluoro-2′-(pyrrolidin-3-yloxymethyl)-biphenyl-2-ol], the Ki turned out to be 650 nM in test [1] and 1090 nM in test [2].

Take `Cc1ccc(-c2ccc(F)cc2CO[C@H]2CCNC2)cc1C` [Example D-104, (S)-3-(4-Fluoro-3′,4′-dimethyl-biphenyl-2-ylmethoxy)-pyrrolidine]: the Ki in test [1] was determined as 112 nM; in test [2], 220 nM.

For `COc1cc(-c2ccc(F)cc2CO[C@H]2CCNC2)cc(OC)c1OC` [Example D-105], the Ki in test [1] is 1520 nM; in test [2], 577 nM.

For the molecule `Cc1cc(F)ccc1-c1ccc(F)cc1CO[C@H]1CCNC1` [Example D-106, (S)-3-(4,4′-Difluoro-2′-methyl-biphenyl-2-ylmethoxy)-pyrrolidine], the inhibition constant Ki in test [1] came out at 121 nM; in test [2], 372 nM.

`CC(C)Oc1ccc(-c2ccc(F)cc2CO[C@H]2CCNC2)cc1` [Example D-107, (S)-3-(4-Fluoro-4′-isopropoxy-biphenyl-2-ylmethoxy)-pyrrolidine]: the values for the Ki in test [1] and in test [2] were 3830 nM and 386 nM, respectively.

Take `Fc1ccc(-c2cccc(Cl)c2)c(CO[C@H]2CCNC2)c1` [Example D-108, (S)-3-(3′-Chloro-4-fluoro-biphenyl-2-ylmethoxy)-pyrrolidine]: the Ki was 103 nM in test [1] and 57 nM in test [2].

Consider `CCS(=O)(=O)c1ccc(-c2ccc(F)cc2CO[C@H]2CCNC2)cc1` [Example D-109, (S)-3-(4′-Ethanesulfonyl-4-fluoro-biphenyl-2-ylmethoxy)-pyrrolidine], for which the Ki in test [1] and in test [2] was not below 10000 nM throughout.

Turning to `N#Cc1ccc(-c2ccc(F)cc2CO[C@H]2CCNC2)cc1` [Example D-110, (S)-4′-Fluoro-2′-(pyrrolidin-3-yloxymethyl)-biphenyl-4-carbonitrile], the inhibitory constant (Ki) in test [1] was 1200 nM; in test [2], 1320 nM.

Consider `Fc1ccc(-c2ccc(Cl)cc2)c(CO[C@H]2CCNC2)c1` [Example D-111, (S)-3-(4′-Chloro-4-fluoro-biphenyl-2-ylmethoxy)-pyrrolidine], for which the inhibition constant (Ki) was 97 nM in test [1] and 155 nM in test [2].

With `Cc1cc(C)n(-c2cccc(-c3ccc(F)cc3CO[C@H]3CCNC3)c2)n1` [Example D-112, (S)-1-[4′-Fluoro-2′-(pyrrolidin-3-yloxymethyl)-biphenyl-3-yl]-3,5-dimethyl-1H-pyrazole], the inhibition constant (Ki) was found to be 9630 nM in test [1] and 107 nM in test [2].

`CCc1ccccc1-c1ccc(F)cc1CO[C@H]1CCNC1` [Example D-113, (S)-3-(2′-Ethyl-4-fluoro-biphenyl-2-ylmethoxy)-pyrrolidine]: the inhibitory constant (Ki) in test [1] came to 1340 nM; in test [2], 1470 nM.

Regarding `COc1cccc(-c2ccc(F)cc2CO[C@H]2CCNC2)c1` [Example D-114, (S)-3-(4-Fluoro-3′-methoxy-biphenyl-2-ylmethoxy)-pyrrolidine], the Ki in test [1] turned out to be 145 nM; in test [2] it was 60 nM.

With `COc1ccc(-c2ccc(F)cc2CO[C@H]2CCNC2)cc1` [Example D-115, (S)-3-(4-Fluoro-4′-methoxy-biphenyl-2-ylmethoxy)-pyrrolidine], the inhibition constant Ki in test [1] worked out at 674 nM; in test [2], 606 nM.

As to `Fc1ccc(-c2cccc(-n3cccn3)c2)c(CO[C@H]2CCNC2)c1` [Example D-116, (S)-1-[4′-Fluoro-2′-(pyrrolidin-3-yloxymethyl)-biphenyl-3-yl]-1H-pyrazole], the inhibition constant (Ki) in test [1] came out at 688 nM; in test [2] it was 38.7 nM.

With `NC(=O)c1cccc(-c2ccc(F)cc2CO[C@H]2CCNC2)c1` [Example D-117, (S)-4′-Fluoro-2′-(pyrrolidin-3-yloxymethyl)-biphenyl-3-carboxylic acid amide], the Ki in test [1] is not below 10000 nM; in test [2] it was 2160 nM.

Turning to `Clc1ncccc1-c1ccccc1CO[C@H]1CCNC1` [Example D-118, (S)-2-Chloro-3-[2-(pyrrolidin-3-yloxymethyl)-phenyl]-pyridine], the inhibition constant (Ki) is not below 10000 nM in test [1] and 3560 nM in test [2].

For the molecule `CC(C)Oc1ncccc1-c1ccccc1CO[C@H]1CCNC1` [Example D-119, (S)-2-Isopropoxy-3-[2-(pyrrolidin-3-yloxymethyl)-phenyl]-pyridine], the Ki came to 963 nM in test [1] and 2730 nM in test [2].

Consider `CCOc1ncccc1-c1ccccc1CO[C@H]1CCNC1` [Example D-120, (S)-2-Ethoxy-3-[2-(pyrrolidin-3-yloxymethyl)-phenyl]-pyridine], for which the figures for the inhibition constant Ki in test [1] and in test [2] were 571 nM and 4230 nM, respectively.

`Nc1ncccc1-c1ccccc1CO[C@H]1CCNC1` [Example D-121, (S)-3-[2-(Pyrrolidin-3-yloxymethyl)-phenyl]-pyridin-2-ylamine]: the inhibition constant (Ki) in test [1] was not below 10000 nM; in test [2] it was 5630 nM.

On to `c1ccc(-c2cccc3ncccc23)c(CO[C@H]2CCNC2)c1` [Example D-122, (S)-5-[2-(Pyrrolidin-3-yloxymethyl)-phenyl]-quinoline], for which the inhibition constant Ki was 659 nM in test [1] and 769 nM in test [2].

In the case of `c1ccc(-c2cnc3[nH]ccc3c2)c(CO[C@H]2CCNC2)c1` [Example D-124, (S)-5-[2-(Pyrrolidin-3-yloxymethyl)-phenyl]-1H-pyrrolo[2,3-b]pyridine], the Ki in test [1] was found to be 7400 nM; in test [2], 2730 nM.

As for `N#Cc1cccc(-c2cc(F)ccc2F)c1CO[C@H]1CCNC1` [Example E-1, (S)-2′,5′-Difluoro-2-(pyrrolidin-3-yloxymethyl)-biphenyl-3-carbonitrile fumarate], the values for the Ki in test [1] and in test [2] were 336 nM and 1120 nM, respectively.

Regarding `N#Cc1cccc(-c2ccc(F)cc2F)c1CO[C@H]1CCNC1` [Example E-2, (S)-2′,4′-Difluoro-2-(pyrrolidin-3-yloxymethyl)-biphenyl-3-carbonitrile fumarate], the Ki was found to be 763 nM in test [1] and 3770 nM in test [2].

With `N#Cc1cccc(-c2cccc(F)c2F)c1CO[C@H]1CCNC1` [Example E-3, (S)-2′,3′-Difluoro-2-(pyrrolidin-3-yloxymethyl)-biphenyl-3-carbonitrile fumarate], the Ki in test [1] turned out to be 560 nM; in test [2] it was 1570 nM.

For “(S)-1-{3-[2-Pyrrolidin-3-yloxymethyl)-phenyl]-pyridin-2-yl}-piperazine [Example D-125]”, the values for the Ki in test [1] and in test [2] were not below 10000 nM and 6930 nM, respectively.
